The record followed here is patent publication US8853418B2, “Cyclopentylpyrazoles as N-type calcium channel blockers” (Janssen Pharmaceutica NV, priority 2012, dated 2014).

The IC50 is the concentration needed to halve the response being measured. Broadly, the inhibition is the relative decrease from the control value, in per cent.

Like-named read-outs stand apart in the source and are kept apart here.

The target of the experiment is N-type calcium channel (α1B (Cav2.2), β3 and α2δ subunits) (Homo sapiens, UniProt Q00975). The experiment is described as follows: Functional Assay: Antagonism of N-Type Calcium Channel (FDSS calcium mobilization, KCl depolarization). Format: cell-based. Here is the method: A stable cell line (HEK parent) co-expressing the α1B (Cav2.2), β3 and α2δ subunits of the N-type calcium channel subunits was used. These cells were routinely grown as monolayers in low glucose-containing Dulbecco's Modified Eagle Medium supplemented with 10% FBS, 2 mM L-glutamine, 100 I.U./mL penicillin, 100 μg/mL streptomycin, 400 μg/mL G418 and 200 μg/mL Zeocin (split ratio=1:5). Cells were maintained in 5% CO2 at 37° C. Compounds of Formula (I) were prepared as 10 mM stocks in DMSO from neat compound, if available. Otherwise, the 5 or 10 mM DMSO stock solutions provided in-house were used.
Calcium mobilization responses to KCl depolarization were evaluated by measuring the intensity of calcium-mediated fluorescent signal in the presence of BD Calcium Assay Dye (BD Biosciences, Franklin Lakes, N.J., U.S.A.), utilizing a Functional Drug Screening System (FDSS) by Hamamatsu Corporation (Bridgewater, N.J. U.S.A.).
Twenty-four hr prior to assay, cells were seeded in clear-base poly-D-lysine-coated 384-well plates (BD Biosciences) at a density of 5,000 cells per well in culture medium and grown overnight in 5% CO2 at 37° C. On the day of assay, growth media were removed, and cells were loaded with BD calcium assay dye (BD Biosciences) for 35 min at 37° C. under 5% CO2 and then for 25 min at room temp. Utilizing the FDSS, cells were exposed to representative compounds of Formula (I) at varying concentrations, and intracellular calcium was measured for 5 min prior to the addition of 50 mM KCl for an additional 3 min of measurement.
Calculations and Formulas
IC50 values for representative compounds of Formula (I) were determined from six-point concentration-response experiments and represent the concentration of said compound required to inhibit 50% of the maximal response. Maximal fluorescence intensity (FI) achieved upon addition of 50 mM KCl was exported from the FDSS software and further analyzed using GraphPad Prism 3.02 (Graph Pad Software Inc., San Diego, Calif., U.S.A.). Data were normalized to the maximum average counts from quadruplicate wells for each condition in the presence of 50 mM KCl and to the minimum average counts in the presence of buffer. Theoretical curves were generated using nonlinear regression curve-fitting analysis of either sigmoidal concentration-response or sigmoidal concentration-response (variable slope), and the IC50 values with the best-fit curve determined by GraphPad Prism were reported.
Background: Calcium assays in cells follow changes in intracellular calcium, usually with a dye or a luminescent sensor.

[1] abbreviates: HEK cell line, 50 mM KCl depolarization, six-point concentration-response, read-out: FDSS IC50.

N-type calcium channel (α1B (Cav2.2), β3 and α2δ subunits), sequence (Q00975 whole entry): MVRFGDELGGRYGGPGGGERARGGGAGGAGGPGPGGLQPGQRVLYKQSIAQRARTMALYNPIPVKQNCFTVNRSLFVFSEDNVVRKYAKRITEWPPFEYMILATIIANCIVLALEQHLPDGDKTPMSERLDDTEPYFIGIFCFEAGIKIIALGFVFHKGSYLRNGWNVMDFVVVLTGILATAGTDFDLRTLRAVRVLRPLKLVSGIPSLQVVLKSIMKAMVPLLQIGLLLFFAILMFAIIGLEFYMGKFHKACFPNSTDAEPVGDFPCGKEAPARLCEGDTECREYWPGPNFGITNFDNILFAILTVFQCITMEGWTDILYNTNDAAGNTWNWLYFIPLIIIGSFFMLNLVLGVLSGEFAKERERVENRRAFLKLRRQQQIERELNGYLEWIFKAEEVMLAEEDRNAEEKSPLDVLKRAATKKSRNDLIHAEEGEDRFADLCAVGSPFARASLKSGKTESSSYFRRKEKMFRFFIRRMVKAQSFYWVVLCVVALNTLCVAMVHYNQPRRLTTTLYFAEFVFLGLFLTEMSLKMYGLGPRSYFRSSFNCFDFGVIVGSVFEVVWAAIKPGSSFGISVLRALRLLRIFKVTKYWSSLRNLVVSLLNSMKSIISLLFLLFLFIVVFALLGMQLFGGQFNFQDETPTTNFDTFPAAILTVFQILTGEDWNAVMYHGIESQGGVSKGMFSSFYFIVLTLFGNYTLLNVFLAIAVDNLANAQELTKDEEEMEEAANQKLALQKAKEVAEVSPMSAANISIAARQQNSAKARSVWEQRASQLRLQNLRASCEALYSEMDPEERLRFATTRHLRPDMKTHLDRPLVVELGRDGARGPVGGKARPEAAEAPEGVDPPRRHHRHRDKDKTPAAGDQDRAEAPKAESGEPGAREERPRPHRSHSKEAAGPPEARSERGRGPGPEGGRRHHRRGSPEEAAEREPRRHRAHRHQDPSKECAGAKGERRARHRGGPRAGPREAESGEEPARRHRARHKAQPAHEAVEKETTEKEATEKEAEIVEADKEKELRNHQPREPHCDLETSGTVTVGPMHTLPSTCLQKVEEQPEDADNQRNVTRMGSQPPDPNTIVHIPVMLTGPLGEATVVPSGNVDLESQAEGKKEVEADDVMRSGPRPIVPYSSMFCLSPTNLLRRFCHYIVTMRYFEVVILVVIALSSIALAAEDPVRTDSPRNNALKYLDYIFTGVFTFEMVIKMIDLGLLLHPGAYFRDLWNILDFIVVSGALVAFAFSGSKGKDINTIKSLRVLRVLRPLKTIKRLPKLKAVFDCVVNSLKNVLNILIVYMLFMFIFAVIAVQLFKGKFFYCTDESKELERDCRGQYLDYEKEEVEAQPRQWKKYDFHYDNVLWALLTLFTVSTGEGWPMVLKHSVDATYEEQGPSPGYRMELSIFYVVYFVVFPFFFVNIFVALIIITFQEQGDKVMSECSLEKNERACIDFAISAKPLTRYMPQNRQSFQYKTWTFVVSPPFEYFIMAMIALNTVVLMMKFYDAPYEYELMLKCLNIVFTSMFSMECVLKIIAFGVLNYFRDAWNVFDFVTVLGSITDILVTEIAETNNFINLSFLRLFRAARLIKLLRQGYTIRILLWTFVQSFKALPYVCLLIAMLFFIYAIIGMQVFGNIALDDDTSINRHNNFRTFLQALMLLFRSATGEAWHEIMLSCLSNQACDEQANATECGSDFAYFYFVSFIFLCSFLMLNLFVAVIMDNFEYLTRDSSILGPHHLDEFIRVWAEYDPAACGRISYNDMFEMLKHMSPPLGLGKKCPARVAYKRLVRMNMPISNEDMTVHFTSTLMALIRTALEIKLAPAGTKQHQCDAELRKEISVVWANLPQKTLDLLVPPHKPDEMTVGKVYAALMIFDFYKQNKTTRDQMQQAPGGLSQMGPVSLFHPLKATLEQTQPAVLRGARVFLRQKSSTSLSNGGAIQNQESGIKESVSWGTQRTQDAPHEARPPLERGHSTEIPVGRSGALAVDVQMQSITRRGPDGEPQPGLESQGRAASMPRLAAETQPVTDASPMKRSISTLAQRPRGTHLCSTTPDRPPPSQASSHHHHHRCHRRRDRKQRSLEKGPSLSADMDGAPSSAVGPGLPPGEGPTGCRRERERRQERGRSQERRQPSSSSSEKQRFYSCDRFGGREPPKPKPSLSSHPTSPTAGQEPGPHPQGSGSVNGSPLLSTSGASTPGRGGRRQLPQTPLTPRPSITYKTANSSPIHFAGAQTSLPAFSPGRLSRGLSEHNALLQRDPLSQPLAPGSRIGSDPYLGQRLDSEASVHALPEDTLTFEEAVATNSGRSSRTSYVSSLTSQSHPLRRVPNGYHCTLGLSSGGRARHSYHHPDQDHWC
N-type calcium channel (α1B (Cav2.2), β3 and α2δ subunits), sequence (P54284 whole entry partner): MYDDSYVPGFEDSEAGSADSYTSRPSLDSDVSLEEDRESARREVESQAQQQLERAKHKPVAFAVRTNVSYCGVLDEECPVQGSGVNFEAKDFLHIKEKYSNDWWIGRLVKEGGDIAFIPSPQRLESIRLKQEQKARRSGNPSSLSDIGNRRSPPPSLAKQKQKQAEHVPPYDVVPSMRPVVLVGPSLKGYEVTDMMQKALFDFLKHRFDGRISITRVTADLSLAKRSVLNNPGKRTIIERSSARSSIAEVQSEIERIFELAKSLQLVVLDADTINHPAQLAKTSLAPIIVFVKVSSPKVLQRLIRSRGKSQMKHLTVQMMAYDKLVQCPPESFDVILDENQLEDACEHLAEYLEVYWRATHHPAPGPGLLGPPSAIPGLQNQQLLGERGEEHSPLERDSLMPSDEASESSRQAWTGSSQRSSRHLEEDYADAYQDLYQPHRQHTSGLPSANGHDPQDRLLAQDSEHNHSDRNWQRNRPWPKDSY
N-type calcium channel (α1B (Cav2.2), β3 and α2δ subunits), sequence (P54289 25-946 partner limits assumed): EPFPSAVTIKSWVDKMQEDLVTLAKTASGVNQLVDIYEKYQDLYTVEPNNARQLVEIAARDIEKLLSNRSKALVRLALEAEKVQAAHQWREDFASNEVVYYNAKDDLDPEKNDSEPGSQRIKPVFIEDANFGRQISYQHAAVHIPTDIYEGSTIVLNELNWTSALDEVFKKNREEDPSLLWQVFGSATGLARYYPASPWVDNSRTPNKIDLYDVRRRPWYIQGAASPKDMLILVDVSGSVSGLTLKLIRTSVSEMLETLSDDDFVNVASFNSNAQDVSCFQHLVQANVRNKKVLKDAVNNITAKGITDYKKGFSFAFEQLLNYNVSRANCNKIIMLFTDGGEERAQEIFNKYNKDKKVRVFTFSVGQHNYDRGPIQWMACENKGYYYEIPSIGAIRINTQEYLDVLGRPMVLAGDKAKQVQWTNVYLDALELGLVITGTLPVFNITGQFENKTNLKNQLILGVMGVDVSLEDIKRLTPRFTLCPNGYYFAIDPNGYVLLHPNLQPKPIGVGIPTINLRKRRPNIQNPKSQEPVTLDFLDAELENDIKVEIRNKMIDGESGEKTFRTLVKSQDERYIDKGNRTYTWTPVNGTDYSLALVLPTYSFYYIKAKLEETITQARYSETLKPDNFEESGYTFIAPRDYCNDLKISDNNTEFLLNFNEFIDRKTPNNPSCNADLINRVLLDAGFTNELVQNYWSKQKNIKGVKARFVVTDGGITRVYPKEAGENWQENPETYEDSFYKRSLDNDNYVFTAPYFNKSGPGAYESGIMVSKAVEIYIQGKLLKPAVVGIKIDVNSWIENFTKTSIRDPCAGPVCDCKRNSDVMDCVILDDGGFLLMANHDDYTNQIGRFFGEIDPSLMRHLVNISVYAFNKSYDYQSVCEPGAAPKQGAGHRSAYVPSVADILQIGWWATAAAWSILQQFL
N-type calcium channel (α1B (Cav2.2), β3 and α2δ subunits), sequence (P54289 947-1103 partner limits assumed): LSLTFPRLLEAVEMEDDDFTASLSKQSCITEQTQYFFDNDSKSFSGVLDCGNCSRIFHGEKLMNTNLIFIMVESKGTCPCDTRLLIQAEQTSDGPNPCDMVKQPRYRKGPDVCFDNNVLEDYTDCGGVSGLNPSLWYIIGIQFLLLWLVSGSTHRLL

On to `CN(C)C(=O)NCCC1Cc2nn(-c3ccccc3C(F)(F)F)c(-c3ccc(Cl)cc3)c2C1` (stereo not drawn) [Compound 22, 3-(2-{3-(4-chlorophenyl)-2-[2-(trifluoromethyl)phenyl]-2,4,5,6-tetrahydrocyclopenta[c]pyrazol-5-yl}ethyl)-1,1-dimethylurea], for which the 50% inhibitory concentration (IC50) under setting [1] is 220 nM.

With `CN(C)C(=O)OC1Cc2nn(-c3ccccc3OC(F)(F)F)c(-c3ccc(Cl)cc3)c2C1` (stereo not drawn) [Compound 23, 3-(4-chlorophenyl)-2-[2-(trifluoromethoxy)phenyl]-2,4,5,6-tetrahydrocyclopenta[c]pyrazol-5-yl dimethylcarbamate], the IC50 under setting [1] turned out to be 140 nM.

On to `O=C(OC1Cc2nn(-c3ccccc3OC(F)(F)F)c(-c3ccc(Cl)cc3)c2C1)N1CCOCC1` (stereo not drawn) [Compound 24, 3-(4-chlorophenyl)-2-[2-(trifluoromethoxy)phenyl]-2,4,5,6-tetrahydrocyclopenta[c]pyrazol-5-ylmorpholine-4-carboxylate], for which, under setting [1], the IC50 was 150 nM.

With `OC1Cc2nn(-c3ccccc3OC(F)(F)F)c(-c3ccc(Cl)cc3)c2C1` (stereo not drawn) [Compound 25, 3-(4-chlorophenyl)-2-[2-(trifluoromethoxy)phenyl]-2,4,5,6-tetrahydrocyclopenta[c]pyrazol-5-ol], the inhibition at 1 µM stood at 61%.

Turning to `COc1ccccc1-n1nc2c(c1-c1ccc(Cl)cc1)CC(O)C2` (stereo not drawn) [Compound 26, 3-(4-chlorophenyl)-2-(2-methoxyphenyl)-2,4,5,6-tetrahydrocyclopenta[c]pyrazol-5-ol], the inhibition at 1 µM is 62%.

Consider `COc1ccccc1-n1nc2c(c1-c1ccc(Cl)cc1)CC(=O)C2` [Compound 35, 3-(4-chlorophenyl)-2-(2-methoxyphenyl)-2,6-dihydrocyclopenta[c]pyrazol-5(4H)-one], for which the concentration for half-maximal inhibition (IC50) under setting [1] was 59 nM.

For the molecule `CCOc1ccccc1-n1nc2c(c1-c1ccc(Cl)cc1)CC(N1CCCC1=O)C2` (stereo not drawn) [Compound 40, 1-[3-(4-chlorophenyl)-2-(2-ethoxyphenyl)-2,4,5,6-tetrahydrocyclopenta[c]pyrazol-5-yl]pyrrolidin-2-one], under setting [1], the IC50 came to 19 nM.

Turning to `COc1ccccc1-n1nc2c(c1-c1ccc(Cl)cc1)C[C@@H](OC)C2` [Compound 49, (5R)-3-(4-chlorophenyl)-5-methoxy-2-(2-methoxyphenyl)-2,4,5,6-tetrahydrocyclopenta[c]pyrazole], the inhibition at 0.33 µM (0.33 μM) is 76%. For the same molecule, the 50% inhibitory concentration (IC50) under setting [1] worked out at 52 nM.

In the case of `COc1cc(Cl)ccc1-n1nc2c(c1-c1ccc(Cl)cc1)CC1(C2)OCCCO1` [Compound 52, 2-(4-Chloro-2-methoxyphenyl)-3-(4-chlorophenyl)-2,6-dihydro-4H-spiro[cyclopenta[c]pyrazole-5,2′-[1,3]dioxane]], the inhibition at 0.33 µM (0.33 μM) turned out to be 64%. Under setting [1], the IC50 is 130 nM.

For `COc1ccccc1-n1nc2c(c1-c1ccc(Cl)cc1)C/C(=N/O)C2` [Compound 53, (5Z)-3-(4-chlorophenyl)-2-(2-methoxyphenyl)-2,6-dihydrocyclopenta[c]pyrazol-5(4H)-one oxime], the inhibition at 0.33 µM (0.33 μM) came out at 31%.

`COc1ccccc1-n1nc2c(c1-c1ccc(Cl)cc1)C[C@H](Oc1ccccc1)C2` [Compound 58, (5S)-3-(4-chlorophenyl)-2-(2-methoxyphenyl)-5-phenoxy-2,4,5,6-tetrahydrocyclopenta[c]pyrazole]: for the setting “0.33 μM”, the inhibition at 0.33 µM was found to be 65%. Under setting [1], the concentration for half-maximal inhibition (IC50) is 130 nM.

Regarding `COc1ccccc1-n1nc2c(c1-c1ccc(Cl)cc1)C[C@H](Oc1cccnc1)C2` [Compound 59, (5S)-3-(4-chlorophenyl)-2-(2-methoxyphenyl)-5-(pyridin-3-yloxy)-2,4,5,6-tetrahydrocyclopenta[c]pyrazole], under “0.33 μM”, the inhibition at 0.33 µM is 76%. For the same molecule, the IC50 under setting [1] was 94 nM.

In the case of `COc1ccccc1-n1nc2c(c1-c1ccc(Cl)cc1)CC(c1ccc(OC(C)C)nc1)C2` (stereo not drawn) [Compound 60, 3-(4-chlorophenyl)-2-(2-methoxyphenyl)-5-[6-(1-methylethoxy)pyridin-3-yl]-2,4,5,6-tetrahydrocyclopenta[c]pyrazole], the inhibition at 0.33 µM (0.33 μM) was found to be 62%. The IC50 under setting [1] stood at 280 nM.

Take `COc1ccccc1-n1nc2c(c1-c1ccc(Cl)cc1)C[C@@H](Oc1ccccn1)C2` [Compound 61, (5R)-3-(4-chlorophenyl)-2-(2-methoxyphenyl)-5-(pyridin-2-yloxy)-2,4,5,6-tetrahydrocyclopenta[c]pyrazole]: the inhibition at 0.33 µM (0.33 μM) is 77%. Under setting [1], the 50% inhibitory concentration (IC50) is 98 nM.

Take `COc1ccccc1-n1nc2c(c1-c1ccc(Cl)cc1)CC(c1ccc(N3CCOCC3)nc1)C2` (stereo not drawn) [Compound 62, 3-(4-chlorophenyl)-2-(2-methoxyphenyl)-5-(6-morpholin-4-ylpyridin-3-yl)-2,4,5,6-tetrahydrocyclopenta[c]pyrazole]: the inhibition at 0.33 µM (0.33 μM) came out at 42%.

Regarding `COc1ccccc1-n1nc2c(c1-c1ccc(Cl)cc1)CC(C1CCC(C)(C)CC1)C2` (stereo not drawn) [Compound 64, 3-(4-chlorophenyl)-5-(4,4-dimethylcyclohexyl)-2-(2-methoxyphenyl)-2,4,5,6-tetrahydrocyclopenta[c]pyrazole], the inhibition at 0.33 µM (0.33 μM) worked out at 66%. Moreover, the IC50 under setting [1] worked out at 280 nM.

Consider `COc1ccccc1-n1nc2c(c1-c1ccc(Cl)cc1)CC(C1CNc3ccccc3C1)C2` (stereo not drawn) [Compound 65, 3-[3-(4-chlorophenyl)-2-(2-methoxyphenyl)-2,4,5,6-tetrahydrocyclopenta[c]pyrazol-5-yl]-1,2,3,4-tetrahydroquinoline], for which, where the note is “0.33 μM”, the inhibition at 0.33 µM was found to be 59%. The IC50 under setting [1] was 280 nM.

On to `CCOC(=O)c1cncc(C2Cc3nn(-c4ccccc4OC)c(-c4ccc(Cl)cc4)c3C2)c1` (stereo not drawn) [Compound 66, Ethyl 5-[3-(4-chlorophenyl)-2-(2-methoxyphenyl)-2,4,5,6-tetrahydrocyclopenta[c]pyrazol-5-yl]pyridine-3-carboxylate], for which the inhibition at 0.33 µM (0.33 μM) amounted to 79%. For the same molecule, under setting [1], the 50% inhibitory concentration (IC50) worked out at 66 nM.

With `CCC(CC)CO[C@@H]1Cc2nn(-c3ccccc3OC)c(-c3ccc(Cl)cc3)c2C1` [Compound 72, (5S)-3-(4-chlorophenyl)-5-(2-ethylbutoxy)-2-(2-methoxyphenyl)-2,4,5,6-tetrahydrocyclopenta[c]pyrazole], the inhibition at 0.33 µM (0.33 μM) stood at 78%. Further, the IC50 under setting [1] worked out at 61 nM.

Regarding `COc1ccccc1-n1nc2c(c1-c1ccc(Cl)cc1)CC(c1ccc(C)nc1)C2` (stereo not drawn) [Compound 73, 3-(4-chlorophenyl)-2-(2-methoxyphenyl)-5-(6-methylpyridin-3-yl)-2,4,5,6-tetrahydrocyclopenta[c]pyrazole], the inhibition at 0.33 µM (0.33 μM) stood at 81%. For the same molecule, the half-inhibitory concentration (IC50) under setting [1] came to 86 nM.

Take `CCOc1ccc(C2Cc3nn(-c4ccccc4OC)c(-c4ccc(Cl)cc4)c3C2)cn1` (stereo not drawn) [Compound 74, 3-(4-chlorophenyl)-5-(6-ethoxypyridin-3-yl)-2-(2-methoxyphenyl)-2,4,5,6-tetrahydrocyclopenta[c]pyrazole]: the inhibition at 0.33 µM (0.33 μM) was determined as 61%. In addition, under setting [1], the IC50 was 150 nM.

For the molecule `COc1ccccc1-n1nc2c(c1-c1ccc(Cl)cc1)CC(c1ccc(C(C)C)nc1Cl)C2` (stereo not drawn) [Compound 75, 5-[2-Chloro-6-(1-methylethyl)pyridin-3-yl]-3-(4-chlorophenyl)-2-(2-methoxyphenyl)-2,4,5,6-tetrahydrocyclopenta[c]pyrazole], the inhibition at 0.33 µM (0.33 μM) stood at 53%. In addition, the 50% inhibitory concentration (IC50) under setting [1] is 230 nM.

As to `COc1ccccc1-n1nc2c(c1-c1ccc(Cl)cc1)CC(c1ccc(C3CC3)nc1)C2` (stereo not drawn) [Compound 77, 3-(4-chlorophenyl)-5-(6-cyclopropylpyridin-3-yl)-2-(2-methoxyphenyl)-2,4,5,6-tetrahydrocyclopenta[c]pyrazole], under “0.33 μM”, the inhibition at 0.33 µM stood at 81%. In addition, under setting [1], the 50% inhibitory concentration (IC50) was determined as 62 nM.

With `COc1ccccc1-n1nc2c(c1-c1ccc(Cl)cc1)C[C@H](OCC1CCCCC1)C2` [Compound 82, (5S)-3-(4-chlorophenyl)-5-(cyclohexylmethoxy)-2-(2-methoxyphenyl)-2,4,5,6-tetrahydrocyclopenta[c]pyrazole], the inhibition at 0.33 µM was 76%. Further, the half-inhibitory concentration (IC50) (FDSS IC50) was 130 nM.

As for `COc1ccccc1-n1nc2c(c1-c1ccc(Cl)cc1)C[C@H](OCC1CCCC1)C2` [Compound 83, (5S)-3-(4-chlorophenyl)-5-(cyclopentylmethoxy)-2-(2-methoxyphenyl)-2,4,5,6-tetrahydrocyclopenta[c]pyrazole], the inhibition at 0.33 µM amounted to 92%. The IC50 under setting [1] was determined as 49 nM.

As to `COc1ccccc1-n1nc2c(c1-c1ccc(Cl)cc1)C[C@H](OCC1CCC1)C2` [Compound 84, (5S)-3-(4-chlorophenyl)-5-(cyclobutylmethoxy)-2-(2-methoxyphenyl)-2,4,5,6-tetrahydrocyclopenta[c]pyrazole], the inhibition at 0.33 µM stood at 80%.
